In assay [1] the test system is I338G v-Src. Briefly: biochemical. Conditions: for increase in affinity over previously optimized inhibitors of wild type kinases: versus PP1 on Fyn. The format is biochemical.
In assay [2] the target is T1, I338G v-Src (Rous sarcoma virus subgroup A, UniProt P00524, DEL77-225/I338G).
T1 construct: catalytic domain of the target kinase, I338G v-Src, which was expressed in bacteria and purified as a glutathione-S-transferase (GST) fusion protein; made in house; host or cells: E. coli DH5a, pGEX-KT
Briefly: biochemical. The format is biochemical.

For the next assay, the target named is T2, WT v-Src (Rous sarcoma virus subgroup A, UniProt P00524, DEL77-225).
T2 construct: glutathione-S-transferase fusion proteins of wild type v-Src catalytic domain, I338G v-Src SH1, and WT Fyn into the pGEX-KT plasmid; GST (N); made in house; host or cells: E. coli DH5a, pGEX-KT
Briefly: biochemical. Also on record: in vitro inhibition of WT v-Src / inhibition of WT v-Src: dose or concentration left out as unconfirmed. The format is biochemical.

In another assay the target is T3, WT Fyn (Homo sapiens, UniProt P06241).
T3 construct: GST (N); made in house; host or cells: E. coli DH5a, pGEX-KT
Briefly: In vitro kinase inhibition assay. It is filed as biochemical. Set-up: in vitro inhibition of Fyn: dose or concentration left out as unconfirmed. Conditions: for IC50: Table 3.

The subject of assay [3] is I338G v-Src transformed NIH3T3 cells. Kind of assay: Inhibition of v-Src in NIH3T3 fibroblasts, phosphotyrosine blot. It is filed as cell-based, murine.
Assay [4] deals with I338G v-Src transformed NIH3T3 fibroblasts. Briefly: Microscopy of cell morphology and polymerized actin. It is filed as cell-based, murine.
The test system of assay [5] is WT v-Src transformed NIH3T3 cells. Kind of assay: Inhibition of v-Src in NIH3T3 fibroblasts, phosphotyrosine blot. It is filed as cell-based, murine.
The subject of another assay is Jurkat cells. Kind of assay: Tyrosine phosphorylation in pervanadate treated Jurkat cells. It is filed as cell-based, human. The note with it: 500nM 6a, 30 min, then 0.5 mM pervanadate.
The subject of assay [6] is WT v-Src transformed NIH3T3 fibroblasts. Kind of assay: Microscopy of cell morphology and polymerized actin. The format is cell-based, murine. The note with it: 250 nM 6a, 16 hours.
Assay [7] has as its system B cell receptor (BCR) mediated phosphorylation cascade. Kind of assay: Murine B cell assay, phosphotyrosine blot. Also on record: dose or concentration left out as unconfirmed. The format is cell-based. The note with it: 30 minutes, anti-IgM stimulation. As to the method:
Murine B Cell Assay: Splenic lymphocytes were isolated from 6-20 week old Balb/c or C57/B6 mice. The cells were washed out of the spleen into RPMI media containing 1 mg/mL DNase in and the red blood cells were lysed in 17 mM tris-ammonium chloride, pH 7.2, Approximately 4x10^6 cells were incubated at 37°C for 30 minutes with […] of 3g or 2 in 1.1% DMSO. B cell stimulation was initiated by the addition of 2 mg of goat anti-mouse IgM (Jackson Immuno Research, cat# 115-005-075) and subsequent incubation for 5 minutes at 37(C. The cells were isolated by centrifugation (13,000 rpm, 2 min) and lysed (lysis buffer: 1% Triton X-100, 50 mM tris pH 7.4, 2 mM EDTA, 150 mM NaCl, […] PMSF, 2 mM sodium orthovanadate, 10 mg/mL leupeptin, 10 mg/mL apoprotin). The cellular debris was then pelleted at 13,000 rpm for 15 min. Cellular proteins were separated by 10% polyacrylamide gel electrophoresis and transferred to a nitrocellulose membrane by Western blotting. Phosphotyrosine containing proteins were visualized by immunoblotting with anti-phosphotyrosine antibody (Upstate Biotechnology, Inc.).

The subject of assay [8] is wild-type protein tyrosine kinase. Briefly: Screening of nucleotide analogs in murine lymphocyte lysate, anti-phosphotyrosine immunoblot. The note with it: 100 uM nucleotide triphosphate, 37°C, 5 min. It is filed as biochemical. (A western blot detects proteins with antibodies after separation by electrophoresis.)
The next assay has as its target T4, PKCd (Homo sapiens, UniProt Q05655).
T4 construct: 6-His; made in house
Kind of assay: In vitro kinase inhibition assay. The note with it: concentrations up to 300 mM. The format is biochemical.

In the next assay the target is T5, PKA (Homo sapiens, UniProt P17612).
T5 construct: purchased Pierce
Kind of assay: In vitro kinase inhibition assay. It is filed as biochemical. The note with it: concentrations up to 300 mM. The text has this:
(§1) PKA was purchased (Pierce) and used without further purification.

Another assay addresses T6, T339G Fyn (Homo sapiens, UniProt P06241, T342G).
T6 construct: GST (N); made in house; host or cells: E. coli DH5a, pGEX-KT
Briefly: In vitro kinase inhibition assay. It is filed as biochemical.
Text: as §1

Entries after “also recorded” stand apart in the source; their conditions may differ. Where two headings read alike, the source gives them in different places.

T3 sequence (P06241 1-534 isoform P06241-2): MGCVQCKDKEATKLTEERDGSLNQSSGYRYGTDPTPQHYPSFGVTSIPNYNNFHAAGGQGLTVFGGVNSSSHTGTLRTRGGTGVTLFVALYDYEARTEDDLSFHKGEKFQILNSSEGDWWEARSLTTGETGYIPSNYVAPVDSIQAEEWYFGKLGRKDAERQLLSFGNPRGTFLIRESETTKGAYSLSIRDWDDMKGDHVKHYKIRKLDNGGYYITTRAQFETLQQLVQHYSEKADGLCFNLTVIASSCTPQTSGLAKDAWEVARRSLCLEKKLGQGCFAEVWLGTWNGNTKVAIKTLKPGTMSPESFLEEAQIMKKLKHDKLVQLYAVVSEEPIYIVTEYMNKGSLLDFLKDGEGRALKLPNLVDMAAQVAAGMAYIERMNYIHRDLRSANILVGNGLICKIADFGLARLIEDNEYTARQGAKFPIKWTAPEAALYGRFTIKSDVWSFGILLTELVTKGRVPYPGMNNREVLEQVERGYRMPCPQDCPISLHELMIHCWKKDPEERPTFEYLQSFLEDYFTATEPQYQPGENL
T4 sequence (Q05655 whole entry, species assumed): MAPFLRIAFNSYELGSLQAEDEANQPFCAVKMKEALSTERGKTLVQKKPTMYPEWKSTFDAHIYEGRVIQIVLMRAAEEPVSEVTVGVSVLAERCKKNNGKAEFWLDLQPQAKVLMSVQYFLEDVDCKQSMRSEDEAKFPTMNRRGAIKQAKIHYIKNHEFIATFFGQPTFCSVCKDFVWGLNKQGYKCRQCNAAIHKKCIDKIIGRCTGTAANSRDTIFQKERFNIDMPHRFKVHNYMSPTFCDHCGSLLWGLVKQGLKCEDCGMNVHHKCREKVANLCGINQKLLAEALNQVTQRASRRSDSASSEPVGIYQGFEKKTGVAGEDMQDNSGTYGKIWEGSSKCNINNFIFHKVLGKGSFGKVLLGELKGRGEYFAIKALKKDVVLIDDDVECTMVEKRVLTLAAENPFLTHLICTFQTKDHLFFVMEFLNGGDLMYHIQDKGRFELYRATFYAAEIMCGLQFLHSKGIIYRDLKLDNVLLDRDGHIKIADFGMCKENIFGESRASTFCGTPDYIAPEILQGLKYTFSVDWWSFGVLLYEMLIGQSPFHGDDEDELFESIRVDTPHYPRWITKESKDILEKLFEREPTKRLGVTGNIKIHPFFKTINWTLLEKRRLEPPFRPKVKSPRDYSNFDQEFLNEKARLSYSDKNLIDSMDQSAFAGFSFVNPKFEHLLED
T6 sequence (P06241 1-534 isoform P06241-2 T339G): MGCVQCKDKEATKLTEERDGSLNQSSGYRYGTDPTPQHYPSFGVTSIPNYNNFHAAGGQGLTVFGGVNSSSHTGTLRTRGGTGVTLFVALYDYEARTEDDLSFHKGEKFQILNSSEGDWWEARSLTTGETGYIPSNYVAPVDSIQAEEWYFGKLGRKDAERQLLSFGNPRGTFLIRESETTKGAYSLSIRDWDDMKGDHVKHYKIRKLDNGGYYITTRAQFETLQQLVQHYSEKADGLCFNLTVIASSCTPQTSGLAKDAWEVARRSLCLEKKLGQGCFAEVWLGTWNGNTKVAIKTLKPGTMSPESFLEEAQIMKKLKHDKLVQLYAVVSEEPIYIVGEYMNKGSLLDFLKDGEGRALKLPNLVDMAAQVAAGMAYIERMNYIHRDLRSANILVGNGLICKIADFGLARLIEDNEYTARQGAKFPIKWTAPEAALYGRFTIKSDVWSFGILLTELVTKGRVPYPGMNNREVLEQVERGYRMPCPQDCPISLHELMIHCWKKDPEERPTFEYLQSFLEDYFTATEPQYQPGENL

Regarding `CC(C)(C)n1nc(Cc2ccc3c(c2)OCO3)c2c(N)ncnc21` [Compound 6f, 4-amino-1-(tert-butyl)-3-piperonylpyrazolo[3,4-d]pyrimidine], the “selectivity for I338G v-Src with respect to wild type v-Src” value (from here on “selectivity … to wild type v-Src”) in the assay on I338G v-Src [1] (in vitro) is on record as roughly 120 fold.
For `CC(C)(C)n1nc(COc2cccc3ccccc23)c2c(N)ncnc21` [Compound 6i, 4-amino-1(tert-butyl)-3-(1'-naphthoxymethyl)pyrazolo[3,4-d]pyrimidine], in the assay on I338G v-Src [1] (in vitro), the “selectivity … to wild type v-Src” value is listed as greater than 6500 fold. In addition, the IC50 was 45 nM on I338G v-Src [2] (Table 3, read-out: 1338G v-Src); greater than 300000 nM at WT v-Src (Table 3, read-out: vSrc); greater than 300000 nM against WT Fyn.
In the case of `CC(C)(C)n1nc(-c2cccc3ccccc23)c2c(N)ncnc21` [4-amino-1-(tert-butyl)-3-(1'-naphthyl)pyrazolo[3,4-d]pyrimidine], the “increase in affinity over previously optimized inhibitors of wild type kinases” value in the assay with I338G v-Src [1] was found to be 20 fold. The IC50 on I338G v-Src [2] worked out at 1.5 nM; against WT v-Src, 1000 nM. Also, the tyrosine phosphorylation entry in [3] (varying concentrations of 6a, 30 min) is listed as “strongly diminishes tyrosine phosphorylation in a concentration dependent manner within minutes”; in the assay on Jurkat cells, “no detectable decrease in phosphorylation”. The “actin fibers and morphology” value in assay [4] (250 nM 6a, 16 hours) is “clear actin fibers and appear indistinguishable from normal NIH3T3 fibroblasts; also recorded: selectively acquire a flattened morphology and selectively regain actin stress”; in assay [6], “indistinguishable from untreated wild type cells; also recorded: no effect on this non-mutant cell line”. Moreover, the phosphotyrosine signal entry in [5] (500nM 6a) is on record as “no loss of phosphotyrosine signal”.
As to `CC(C)(C)n1nc(-c2ccccc2)c2c(N)ncnc21` [2 (Figure 14), 4-Amino-1-tert-butyl-3-phenylpyrazolo [3,4-d] pyrimidine], the IC50 on I338G v-Src [2] came out at 430 nM. Moreover, the “phosphotyrosine pattern of B cell stimulation” value in assay [7] was “significant reduction in tyrosine phosphorylation”.
Consider `CC(C)(C)n1nc(-c2cccc(OCc3c(Cl)cccc3Cl)c2)c2c(N)ncnc21` [Compound 6e, 4-amino-1-(tert-butyl)-3-(m-(2',6'-dichloro)benzyloxyphenyl) pyrazolo[3,4-d]pyrimidine], for which the IC50 on I338G v-Src [2] (Table 3, read-out: 1338G v-Src) is 130 nM; at WT v-Src (Table 3, read-out: vSrc) it was 300000 nM.
In the case of `CC(C)(C)n1nc(-c2ccc3ccccc3c2)c2c(N)ncnc21` [Compound 6b, 4-amino-1-(tert-butyl)-3-(2'-naphthyl)pyrazolo[3,4-d]pyrimidine], the “increase in affinity over previously optimized inhibitors of wild type kinases” value in the assay with I338G v-Src [1] came out at 20 fold.
For `CC(C)(C)c1ccc(-c2nn(C(C)(C)C)c3ncnc(N)c23)cc1` [Compound 6g, 4-amino-1-(tert-butyl)-3-(p-tert-butylphenyl)pyrazolo[3,4 d]pyrimidine], the IC50 was determined as 99 nM on I338G v-Src [2] (Table 3, read-out: 1338G v-Src) and 65000 nM at WT v-Src (Table 3, read-out: vSrc).
Regarding `CC(C)(C)n1nc(-c2ccccc2)c2c(N)ncnc21` [Compound 1], in [8], the “level of protein tyrosine phosphorylation” value is recorded as “some ability to serve as cellular protein tyrosine kinase substrates”.
As for `OC[C@H]1O[C@@H](n2cnc3c(NOC4CCCC4)ncnc32)[C@H](O)[C@@H]1O` [N-6 cyclopentyloxyadenosine], the “in vitro inhibition of WT v-Src” value on WT v-Src is listed as “no detectable in vitro inhibition”. Moreover, the “in vitro inhibition of Fyn” value on WT Fyn is on record as “no detectable in vitro inhibition”.
In the case of `CC(C)(C)n1nc(Cc2ccc3ccccc3c2)c2c(N)ncnc21` [Compound 6j, 4-amino-1-(tert-butyl)-3-(2'-naphthylmethyl)pyrazolo[3,4-d]pyrimidine], the IC50 was 20 nM at I338G v-Src [2] (Table 3, read-out: 1338G v-Src); greater than 300000 nM on WT v-Src (Table 3, read-out: vSrc); greater than 300000 nM on WT Fyn.
Consider `CC(C)(C)c1ccc(C(=O)Nc2ncnc3c2c(-c2ccccc2)nn3C(C)(C)C)cc1` [Compound 3g, 4-(p-tert-butyl)benzamido-1-tert-butyl-3-phenylpyrazolo[3,4-d]pyrimidine], for which, in the assay on I338G v-Src [1] (in vitro), the “inhibits the engineered v-Src more effectively than WT Fyn” value is on record as “over 700 times”. In addition, in the assay with I338G v-Src [1] (in vitro), the “selectivity … to wild type v-Src” value is reported as no less than 1000 fold. Further, the IC50 was 430 nM on I338G v-Src [2] (read-out: IC50); 430 nM at I338G v-Src [2] (text b249, read-out: IC50); roughly 50000 nM in assay [3] (Mus musculus, NIH3T3, read-out: IC50 for p36 phosphotyrosine signal). For the same molecule, at WT v-Src (limit of solubility), the “inhibition of WT v-Src” value was “no inhibition”. On PKCd, the “inhibition of PKCd” value is “not detectably inhibited”. In addition, the “cellular IC50 relative to the in vitro value” in assay [3] was “roughly 100 times”. The tyrosine phosphorylation entry in assay [3] (3g, 12 hours) is recorded as “dramatic diminution in the tyrosine phosphorylation of the putative v-Src substrate, p36; also recorded: blocks p36 phosphorylation in I338G v-Src”; in [5] (3g, 12 hours), “no loss of tyrosine phosphorylation”. For the same molecule, in [7], the “phosphotyrosine pattern of B cell stimulation” value is recorded as “no effect on the phosphotyrosine pattern of B cell stimulation”. Also, the “cell morphology and polymerized actin” value in [4] (3g, 48 hours) was “dramatic changes in cell morphology which are consistent with the reversal of transformation; also recorded: defined polymerized actin strings, strongly resembling the actin formations of non-transformed NIH3T3 fibroblasts; also recorded: selectively acquire a flattened morphology and selectively regain Actin stress fibers”. Besides, on PKA, the “inhibition of PKA” value is on record as “not detectably inhibited”. Moreover, the “selectivity for T339G Fyn over WT Fyn” value on T339G Fyn was “greater than 300 fold”.
Regarding `CC(C)(C)n1nc(-c2cccc(OCc3ccccc3)c2)c2c(N)ncnc21` [Compound 6d, 4-amino-1-(tert-butyl)-3-(m-benzyloxyphenyl)pyrazolo[3,4-d]pyrimidine], in the assay on I338G v-Src [1] (in vitro), the “selectivity for I338G v-Src with respect to wild type Fyn” value is listed as greater than 100 fold.

For the origin of these results see patent EP1321467A2, “High affinity inhibitors for target validation and uses thereof” (Princeton University, priority 1999, dated 2000).
